In patent US12545895B2, “Protection of beta cells from immune attack” (Joslin Diabetes Center, priority 2017, dated 2026):

Tests used:
[1] = system: NIT-1 beta cells; assay: Thapsigargin-induced ER stress, cell viability by MTT assay; assay type: cell-based, mouse; conditions: control NIT-1 cells, thapsigargin at different dosages, 3 days
Source text: NIT-1 beta cells were genetically modified at two genes—1) Rnls; and 2) Zbed3 with CRISPR/Cas9 and guide RNAs (gRNAs) targeting Rnls and Zbed3, respectively. The modified NIT-1 cells had reduced expression of renalase (Rnls mutants) or zinc finger BED domain-containing protein 3 (Zbed3 mutants). ER stress was induced by thapsigargin, which blocks the sarco/endoplasmic reticulum Ca^2+-ATPase (SERCA) pump on the ER, thus depleting calcium from the ER and leading to misfolding of proteins in ER and eventually ER stress induced cell death. All cells were treated with thapsigargin for 3 days, and cell viability was evaluated by a standard MTT assay (see Mosmann T, J Immunol Methods 65(1-2):55-63 (1983)). […] Thus, inhibiting expression of the Rnls or Zbed3 protected beta cells from cell death induced by ER stress. See FIG. 8 (Rnls) and FIG. 9 (Zbed3).

[2] = system: NIT-1 cells; assay: Co-culture of NIT-1 cells with NOD splenocytes, active caspase 3 staining; assay type: cell-based, mouse; conditions: 24 hours, 50 splenocytes:1 NIT-1 cell, NIT-1 lines stably expressing gRNA, FIG. 7
Procedure: FIGS. 6A-6C show are in vitro co-culture system for studying NIT-1 cell death by NOD splenocytes. […] The ratios represent ratios of splenocytes to NIT-1 cells. For example, 50:1 indicates 50-times more splenocytes than NIT-1 cells, while 0:1 indicates NIT-1 cells cultured without splenocytes. P<0.0001=****.
NIT-1 cells were incubated for 24 hours with splenocytes at a ratio of 50 splenocytes:1 NIT-1 cell. P<0.05=*; P<0.01=**, and P<0.001=***.
There is little cell death over 24 hours of NIT-1 cells not co-cultured with NOD splenocytes (0:1 ratio of splenocytes to NIT-1 cells in FIG. 6B), as evidenced by weak staining of active caspase-3. In contrast, NIT-1 cells co-cultured with a high ratio of NOD splenocytes (50:1 ratio of splenocytes to NIT-1 cells in FIG. 6B) show high cell death, as evidenced by strong caspase-3 activity. […] This model can be used to study whether inhibiting or suppressing expression of target genes blocks or inhibits the ability of NOD splenocytes to mediate NIT-1 cell death over time.

[3] = system: NIT-1 cells; assay: CRISPR/Cas9 whole-genome loss-of-function (LOF) screen: GeCKO library-A infected NIT-1 cells transplanted into NOD.scid mouse with diabetic NOD splenocytes, gRNA sequencing of surviving graft; assay type: in vivo; conditions: surviving NIT-1 graft of one NOD.scid mouse, ~60 days, severely hyperglycemic; mini-seq
Source text: A series of tools to run a CRISPR/Cas9 mediated whole-genome loss-of-function (LOF) screen were developed. The GeCKO V2 lentiviral pooled library was used that comprises guide RNAs (gRNAs) against every gene (Addgene, targeting >20,000 genes with 6 gRNAs/gene). This library was split into two sub-libraries (A and B), which each cover all targeted genes with 3 gRNAs/gene. These libraries cover the entire coding genome to potentially mutate every gene and also contain >1000 non-targeting gRNAs as internal negative controls. In the GeCKO library, Cas9 and gRNAs were incorporated into a single lentiviral vector to introduce these gene-targeting elements into beta cells by lentiviral infection.
A high-stringency LOF screen was done using a single mouse. In this model, 10^7 GeCKO library-A infected NIT-1 cells (multiplicity of infection (MOI)=0.3) were injected subcutaneously, and 10^7 diabetic NOD splenocytes were injected intravenously at the same time.
For sequencing, genomic DNA from explanted grafts was extracted with genome DNA midi prep kits, and the gRNA region was amplified from genomic DNA using established protocols.
Selection pressure (i.e., autoimmune attack) on transplanted NIT-1 cells was maximized by waiting until NOD.scid mice had become severely hyperglycemic (˜60 days, marked by the arrow) as shown in FIG. 4. Even after the blood glucose of one recipient NOD.scid mouse had reached approximately 500 mg/dL, approximately 50,000 cells from the remaining graft could be isolated. gRNAs were amplified from the genome DNA of the graft and surveyed by mini-seq (low-depth sequencing).
Since the GeCKO library (A library) only contain approximately 60,000 unique gRNAs, 10^6-10^7 sequencing reads was sufficient to cover the whole library and to achieve statistical significance. Typically, one high throughput sequencing reaction using the second generation Illumina system (e.g. NextSeq 500) can yield ˜150 millions of sequence reads, so multiple samples from different grafts were barcoded, mixed and sequenced together, thus greatly reducing sequencing costs.
The sequencing data was de-barcoded and then analyzed by bioinformatics analysis. Established analysis tools such as HiTSelect or MAGeCK were used for gRNA enrichment analysis. In sum, the ability to amplify, sequence and sub-clone gRNAs after in vivo selection allowed identification of genes whose suppression improved beta cell survival.
As expected with the high stringency selection, only 13 unique gRNAs that target 12 genes out of >60,000 gRNAs present in pre-implantation cells were identified. The number of times the gRNA was present in sequence (count), the frequency of the gRNA in the total reads, and the gene targeted by the gRNA are shown in Table 2. Two different gRNAs targeting Menl were found in the screen. The target genes in Table 2 encode for mouse SEQ ID Nos: 11-22 in Table 1, and the known human equivalents of these gene products are SEQ ID Nos: 1-10 in Table 1.

## C/C=C(/C)C(=O)O[C@H]1C(C)=C2[C@H]([C@@H]1OC(=O)CCCCCCC)[C@@](C)(OC(C)=O)C[C@H](OC(=O)CCC)[C@@]1(O)[C@H]2OC(=O)[C@@]1(C)O [thapsigargin]
[1]
  beta cell death (cell viability, MTT): induced beta cell death

## SEQ ID No: 23: gRNA targeting mouse Men1, sequence CACGCCCGAGCTGTCCAGTT (listed as DNA, chemistry not fully specified)
[2]
  NIT-1 cell death mediated by NOD splenocytes (activated caspase 3): significantly decreased
[3]
  Count (number of times the gRNA was present in sequence): 4919
  Frequency (% of total reads): 16.34 % of total reads

## SEQ ID No: 24: gRNA targeting mouse Hivep2, sequence TACGCACTCATACTGATGTT (listed as DNA, chemistry not fully specified)
[3]
  Count (number of times the gRNA was present in sequence): 4073
  Frequency (% of total reads): 13.53 % of total reads

## SEQ ID No: 25: gRNA targeting mouse Rnls, sequence CTACTCCTCTCGCTATGCTC (listed as DNA, chemistry not fully specified)
[3]
  Count (number of times the gRNA was present in sequence): 3810
  Frequency (% of total reads): 12.66 % of total reads

## SEQ ID No: 26: gRNA targeting mouse Lgsn, sequence TGCAACCGCGAACCCTTACC (listed as DNA, chemistry not fully specified)
[3]
  Count (number of times the gRNA was present in sequence): 3252
  Frequency (% of total reads): 10.80 % of total reads

## SEQ ID No: 27: gRNA targeting mouse GCN1 (Gcn1l1), sequence GCTTGACACTGCATCGATAT (listed as DNA, chemistry not fully specified)
[3]
  Count (number of times the gRNA was present in sequence): 3228
  Frequency (% of total reads): 10.72 % of total reads

## SEQ ID No: 28: gRNA targeting mouse Gm3604, sequence ACTTTCGTATACAGATACTG (listed as DNA, chemistry not fully specified)
[3]
  Count (number of times the gRNA was present in sequence): 3226
  Frequency (% of total reads): 10.72 % of total reads

## SEQ ID No: 29: gRNA targeting mouse Plin4, sequence CTGCCTCCTTAGTTCCGACA (listed as DNA, chemistry not fully specified)
[3]
  Count (number of times the gRNA was present in sequence): 2529
  Frequency (% of total reads): 8.40 % of total reads

## SEQ ID No: 30: gRNA targeting mouse Med11, sequence TTTCACGCTCGATATCCTCC (listed as DNA, chemistry not fully specified)
[3]
  Count (number of times the gRNA was present in sequence): 1346
  Frequency (% of total reads): 4.47 % of total reads

## SEQ ID No: 31: gRNA targeting mouse Tgm6, sequence CATCGGTGGCTGGGTCCTCC (listed as DNA, chemistry not fully specified)
[3]
  Count (number of times the gRNA was present in sequence): 1225
  Frequency (% of total reads): 4.07 % of total reads

## SEQ ID No: 32: gRNA targeting mouse Zbed3, sequence GCGCGAGGCGGCCCTAATGC (listed as DNA, chemistry not fully specified)
[3]
  Count (number of times the gRNA was present in sequence): 1160
  Frequency (% of total reads): 3.85 % of total reads

## SEQ ID No: 33: second gRNA targeting mouse Men1, sequence GCTGTATGACCTCGGACATC (listed as DNA, chemistry not fully specified)
[2]
  NIT-1 cell death mediated by NOD splenocytes (activated caspase 3): significantly decreased
[3]
  Count (number of times the gRNA was present in sequence): 702
  Frequency (% of total reads): 2.33 % of total reads

## SEQ ID No: 34: gRNA targeting mouse Olfr911-ps1, sequence CTTCAAATGAGATCCACTGC (listed as DNA, chemistry not fully specified)
[3]
  Count (number of times the gRNA was present in sequence): 503
  Frequency (% of total reads): 1.67 % of total reads

## SEQ ID No: 35: gRNA targeting mouse Grm2, sequence GCGGCATAACGCCACACCCG (listed as DNA, chemistry not fully specified)
[3]
  Count (number of times the gRNA was present in sequence): 131
  Frequency (% of total reads): 0.44 % of total reads
